System: Chung model of neuropathic pain
Assay: Chung model of neuropathic pain (tactile allodynia, von Frey hairs)
Format: in vivo
Conditions: rats
Excerpt: A model in accordance with Kim and Chung 1992, Pain […], pp 355-363 (Chung model), for chronic pain (in particular peripheral neuropathy) involves the surgical ligation of the L5 (and optionally the L6) spinal nerves on one side in experimental animals. Rats recovering from the surgery gain weight and display a level of general activity similar to that of normal rats. However, these rats develop abnormalities of the foot, wherein the hindpaw is moderately everted and the toes are held together. More importantly, the hindpaw on the side affected by the surgery appears to become sensitive to pain from low-threshold mechanical stimuli, such as that producing a faint sensation of touch in a human, within about 1 week following surgery. This sensitivity to normally non-painful touch is called “tactile allodynia” and lasts for at least two months. The response includes lifting the affected hindpaw to escape from the stimulus, licking the paw and holding it in the air for many seconds. None of these responses is normally seen in the control group.
Rats are anesthetized before surgery. The surgical site is shaved and prepared either with betadine or Novacaine. Incision is made from the thoracic vertebra XIII down toward the sacrum. Muscle tissue is separated from the spinal vertebra (left side) at the L4-S2 levels. The L6 vertebra is located and the transverse process is carefully removed with a small rongeur to expose the L4-L6 spinal nerves. The L5 and L6 spinal nerves are isolated and tightly ligated with 6-0 silk thread. The same procedure is done on the right side as a control, except no ligation of the spinal nerves is performed.
A complete hemostasis is confirmed, then the wounds are sutured. A small amount of antibiotic ointment is applied to the incised area, and the rat is transferred to the recovery plastic cage under a regulated heat-temperature lamp. On the day of the experiment, at least seven days after the surgery, typically six rats per test group are administered the test drugs by intraperitoneal (i.p.) injection or oral gavage. For i.p. injection, the compounds are formulated in approximately 10 to 50% DMSO and given in a volume of 1 ml/kg body weight.
Tactile allodynia is measured prior to and 30 minutes after drug administration using von Frey hairs that are a series of fine hairs with incremental differences in stiffness. Rats are placed in a plastic cage with a wire mesh bottom and allowed to acclimate for approximately 30 minutes. The von Frey hairs are applied perpendicularly through the mesh to the mid-plantar region of the rats' hindpaw with sufficient force to cause slight buckling and held for 6-8 seconds. The applied force has been calculated to range from 0.41 to 15.1 grams. If the paw is sharply withdrawn, it is considered a positive response. A normal animal will not respond to stimuli in this range, but a surgically ligated paw will be withdrawn in response to a 1-2 gram hair. The 50% paw withdrawal threshold is determined using the method of Dixon, W. J., Ann. Rev. Pharmacol. Toxicol. 20:441-462 (1980). The post-drug threshold is compared to the pre-drug threshold and the percent reversal of tactile sensitivity is calculated based on a normal threshold of 15.1 grams. The results are expressed in percent (%) MPE, where the MPE value reflects the percentage reversal of pain threshold to that of a normal animal (100%).

Cc1cccc(C(Cc2cccnc2)/N=C2/NCCO2)c1C (stereo not drawn) [Compound 21, 1-(2,3-Dimethylphenyl)-N-(oxazolidin-2-ylidene)-2-(pyridin-3-yl)ethanamine]
% Pain Reversal ± SEM (0.10 mg i.p., 30 min): 27 ± 5% | % Pain Reversal ± SEM (0.10 mg i.p., 60 min): ~10% | % Pain Reversal ± SEM (0.30 mg i.p., 30 min): 60.1 ± 12.8% | % Pain Reversal ± SEM (0.30 mg i.p., 60 min): 21.5 ± 6.1% | % Pain Reversal ± SEM (1.0 mg i.p., 30 min): 95.9 ± 4.1% | % Pain Reversal ± SEM (1.0 mg i.p., 60 min): 77.0 ± 7.6%

— US8362022B2, “Selective subtype alpha 2 adrenergic agents and methods for use thereof” (Allergan, Inc., priority 2008, dated 2013)
